From PMC9100673, “Acridine Based N-Acylhydrazone Derivatives as Potential Anticancer Agents: Synthesis, Characterization and ctDNA/HSA Spectroscopic Binding Properties” (Molecules, 2022)

Experiments:
[1] = target: T1, human serum albumin (HSA) (Homo sapiens, UniProt P02768); assay: Three-dimensional fluorescence spectra of HSA; assay type: binding; conditions: HSA:compound 1:1, 4 μM, 25 °C
T1 construct: purchased Sigma (St. Louis, MO, USA)
Excerpt: A useful method for studying drug-HSA interactions is three-dimensional fluorescence spectroscopy, which can offer information about the structural changes to the polypeptide backbone structure and the microenvironment polarity around the Trp and Tyr residues. Peak a (λex = λem) is […], while peak b (2λex = λem) is […]. The change at peak 1 (280/339 nm) reflects a change in the polarity of the microenvironment around the Trp and Tyr residues, and peak 2 (230/336 nm) characterizes the polypeptide backbone structure. […] The fluorescence intensities of both peaks decreased after the addition of derivatives 3a–3d, with a more pronounced decrease observed in the fluorescence intensity of peak 2. […] The changes observed in the 3D spectra correlate with the results of earlier quenching fluorescence experiments. […]
The 3DF spectra of HSA were performed in the absence and presence of compounds 3a–3d using an excitation wavelength range of 200–350 nm and an emission wavelength range of 200–600 nm at room temperature (25 °C). The 3D spectra were recorded for 4 μM of HSA in a 2 mL buffer solution (100 mM NaCl and 10 mM Tris-HCl buffer pH = 7.4) and for the HSA:3a–3d complexes at a concentration ratio 1:1. […]

[2] = target: T1, human serum albumin (HSA); assay: HSA competitive site-marker experiment, reverse titration with 3a; assay type: binding; conditions: for KSV / Kb: 25 °C
Protocol: Displacement experiments were performed using warfarin and ibuprofen as site marker fluorescence probes, as these agents have been proven to bind with HSA at Sudlow sites I and II, respectively. The fluorescence quenching spectra of HSA:acridine derivatives […] (Figure 5) in the presence of increasing concentrations of specific site markers, warfarin or ibuprofen, were studied.
In addition to the spectra assays, reverse titration studies were also performed. The intensity of the fluorescence of the HSA:site marker complex was recorded at increasing concentrations of acridine derivative 3a, with the obtained results given in Figure S7. […] The obtained data were analysed using Equations (3) and (4). The linear Stern-Volmer dependence and dependence log(F0 − F)/F = log[Q] was used to obtain Stern-Volmer quenching constant values (KSV) and apparent binding constant values (Kb). […] A marked change in the quenching constant was also observed after the addition of ibuprofen, a result which could be partly due to the interaction between derivative 3a and ibuprofen. Similar changes and associated interactions between the marker and the studied ligand have been observed in other studies in which competitive experiments were conducted.
Competitive experiments of HSA were performed using warfarin and ibuprofen as standard site marker ligands. The selected markers for the site I were warfarin, whereas site II was probed using ibuprofen. HSA-acridine derivative (3a–3d) complexes at a concentration ratio of 1:1 ([HSA] = 4 μM) were titrated into specific side markers (0–20 μM). The molar ratio of the HSA:marker complexes were 1:0.5, 1:1, 1:1.5, 1:2, 1:2.5, 1:3, 1:3.5, 1:4, 1:4.5 and 1:5. The reaction mixture of the HSA-acridine derivatives complexes with the side markers were preincubated for 15 min prior to spectral measurements. Additionally, a reverse titration competitive experiment was performed for derivative 3a. The site probe-HSA complex (1:1, [HSA] = 4 μM) was titrated with derivative 3a at a concentration gradient of 0.6–6 μM. In order to determine the binding site of compound 3a, the fluorescence quenching data were analysed using Stern-Volmer and modified Stern-Volmer equations to calculate the value of the Stern-Volmer constants (KSV) and binding constants Kb, and to determine the number of binding sites n. All spectra measurements were performed at 280 nm excitation wavelength and the slits were set at 5 nm for excitation and 10 nm for emission spectra at a range of 290–550 nm and at 25 °C.

[3] = in the presence of ibuprofen (HSA:marker 1:1)
[4] = in the presence of warfarin (HSA:marker 1:1)

T1 sequence (P02768 25-609): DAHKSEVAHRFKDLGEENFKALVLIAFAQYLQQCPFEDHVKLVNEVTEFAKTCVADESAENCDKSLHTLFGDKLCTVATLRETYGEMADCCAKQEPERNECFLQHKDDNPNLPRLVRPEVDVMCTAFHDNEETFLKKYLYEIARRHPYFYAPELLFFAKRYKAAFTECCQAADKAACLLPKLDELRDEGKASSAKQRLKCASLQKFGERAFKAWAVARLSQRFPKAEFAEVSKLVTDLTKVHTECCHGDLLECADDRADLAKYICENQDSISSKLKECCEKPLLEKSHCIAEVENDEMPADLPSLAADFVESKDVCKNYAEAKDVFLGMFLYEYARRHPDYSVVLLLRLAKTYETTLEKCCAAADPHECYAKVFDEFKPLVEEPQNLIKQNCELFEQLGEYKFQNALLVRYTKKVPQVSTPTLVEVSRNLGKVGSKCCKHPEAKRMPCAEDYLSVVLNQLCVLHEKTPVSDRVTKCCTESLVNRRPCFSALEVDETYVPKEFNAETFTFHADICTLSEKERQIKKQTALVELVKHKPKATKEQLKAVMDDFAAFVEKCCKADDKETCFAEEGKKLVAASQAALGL

blue shift of peak 1 (280/339 nm) [1]: 8 nm
blue shift of peak 2 (230/336 nm) [1]: 10 nm
binding site on HSA ([2]; competition with warfarin and ibuprofen): Sudlow site I
KSV [2, 3]: 328000 M⁻¹
Kb [2, 3]: 667000 M⁻¹
KSV [2, 4]: 226000 M⁻¹
Kb [2, 4]: 254000 M⁻¹
SMILES: O=C(N/N=C/c1cccc2cc3ccccc3nc12)c1ccccc1 [3a, N′-[(E)-(Acridin-4-yl)methylidene]benzohydrazide]
